Assay results published in patent publication US4851572A, “γ-L-glutamyl-4-nitroanilide derivatives and process for determining γ-GTP activity using the same” (Wako Pure Chemical Industries, Ltd., priority 1987, dated 1989).
In brackets after ≈: the same amount, converted by molar mass. Where two headings read alike, the source gives them in different places.

Key:
[1] = background statement, cited from earlier work
[2] = tested on: γ-GTP; test: Difference in reactivity with γ-GTPs derived from various sources (human serum, porcine, bovine); assay type: biochemical; settings: for Difference between max. and min. activity values: human serum, porcine and bovine samples, relative values, Comparative Example 1 = 100
Protocol: (§1) As samples, there were used human serum and 7% aqueous bovine albumin solutions containing γ-GTP derived from porcine kidney or bovine kidney (hereinafter abbreviated as parcine sample and bovine sample, respectively).
(§2) To 50 μl of each sample was added 2.0 ml of the buffer solution .circle.1 , followed by preincubation at 37° C. for 3 minutes, and 0.5 ml of the substrate solution .circle.2 was added. After sufficient mixing, the resulting mixture was allowed to stand for 1 minute, after which the increase rate of absorbance at 410 nm was measured, and the γ-GTP activity value (IU/l) in the sample was calculated from the molecular absorption coefficient (7.6×10^6 cm^2 /mol) of 3-hydroxymethyl-4-nitroaniline generated.
as §2, with “(7.3×10^6” for “(7.6×10^6”, “3-(β-hydroxyethyl)-4-nitroaniline” for “3-hydroxymethyl-4-nitroaniline”
as §2, with “(8.8×10^6” for “(7.6×10^6”, “p-nitroaniline” for “3-hydroxymethyl-4-nitroaniline”
as §2, with “subdrate” for “substrate”, “([…]” for “(7.6×10^6 cm^2”, “3-carboxy-4-nitroaniline” for “3-hydroxymethyl-4-nitroaniline”
In Table 1, the values of Comparative Example 2 and Examples 5 and 6 are relative γ-GTP activity values taking those of Comparative Example 1 as 100. The γ-GTP activity values (IU/l) were calculated from an absorbance change (ΔE/5 min) at 410 nm for 5 minutes after initiation of the reaction.

[3] = molecular target: T1, γ-GTP derived from porcine kidney (Sus scrofa, UniProt P20735); test: Measurement of γ-GTP activity with the substrate, porcine sample (rate assay, 410 nm); assay type: biochemical; settings: relative to Comparative Example 1 taken as 100, 37° C., 5 min
T1 construct: γ-GTP derived from porcine kidney or bovine kidney; from tissue; host or cells: porcine kidney
Protocol: (§3) Measurement of γ-GTP activity
(§4) 100 Millimols of tris(hydroxymethyl)aminomethane and 60 mmols of glycylglycine were added in 800 ml of deionized water, and pH of its solution was adjusted to 8.2 (at 25° C.) with hydrochloric acid, after which the resulting solution was made up to 1 liter with deionized water.
(§5) In deionized water was dissolved 15 mmols of the γ-L-glutamyl-3-hydroxymethyl-4-nitroanilide obtained in Example 1 to make a total volume of 1 liter.
as §1, §2
(§6) 100 mmols of tris(hydroxymethyl)aminomethane and 60 mmols of glycylglycine were added in 800 ml of deionized water, and pH of its solution was adjusted to 8.2 (at 25° C.) with hydrochloric acid, after which the resulting solution was made up to 1 liter with deionized water.
(§7) In deionized water was dissolved 15 mmols of the γ-L-glutamyl-3-(β-hydroxyethyl)-4-nitroanilide obtained in Example 3 to make a total volume of 1 liter.
(§8) The same samples as in Example 5 were used.
as §2, with “(7.3×10^6” for “(7.6×10^6”, “3-(β-hydroxyethyl)-4-nitroaniline” for “3-hydroxymethyl-4-nitroaniline”, “generated. […]” for “generated.”
as §2, with “(8.8×10^6” for “(7.6×10^6”, “p-nitroaniline” for “3-hydroxymethyl-4-nitroaniline”, “generated. […]” for “generated.”

[4] = molecular target: T2, γ-GTP derived from bovine kidney (Bos taurus, UniProt G3N2D8); test: Measurement of γ-GTP activity with the substrate, bovine sample (rate assay, 410 nm); assay type: biochemical; settings: relative to Comparative Example 1 taken as 100, 37° C., 5 min
T2 construct: γ-GTP derived from porcine kidney or bovine kidney; from tissue; host or cells: bovine kidney
Protocol: as §3, §4, §5, §1, §2, §6, §7, §8
as §2, with “(7.3×10^6” for “(7.6×10^6”, “3-(β-hydroxyethyl)-4-nitroaniline” for “3-hydroxymethyl-4-nitroaniline”, “generated. […]” for “generated.”
as §2, with “(8.8×10^6” for “(7.6×10^6”, “p-nitroaniline” for “3-hydroxymethyl-4-nitroaniline”, “generated. […]” for “generated.”

[5] = Solubility of the substrates in reagent solutions; assay type: physicochemical; settings: pH 8.2, reagent solution (buffer:substrate solution 4:1)
Excerpt: In Table 2 are shown the solubility of the substrates for measuring γ-GTP activity used in Examples 5 and 6 and Comparative Examples 1 and 2 in reagent solutions (reagent solutions being obtained by mixing each buffer solution and each substrate solution in the ratio of 4:1), and the results of stability test on the substrate solutions in the individual cases.

[6] = molecular target: T3, γ-GTP (human serum) (Homo sapiens, UniProt P19440); test: Measurement of γ-GTP activity with the substrate, human serum sample (rate assay, 410 nm); assay type: biochemical; settings: relative to Comparative Example 1 taken as 100, 37° C., 5 min
T3 construct: As samples, there were used human serum; from tissue; host or cells: human serum
Protocol: as §3, §4, §5, §1, §2, §6, §7, §8
as §2, with “(7.3×10^6” for “(7.6×10^6”, “3-(β-hydroxyethyl)-4-nitroaniline” for “3-hydroxymethyl-4-nitroaniline”, “generated. […]” for “generated.”
as §2, with “(8.8×10^6” for “(7.6×10^6”, “p-nitroaniline” for “3-hydroxymethyl-4-nitroaniline”, “generated. […]” for “generated.”

[7] = suitable pH range for determining γ-GTP activity; background statement; cited from earlier work
[8] = molecular target: T4, γ-GTP (human sera) (Homo sapiens, UniProt P19440); test: Measurement of γ-GTP activity in human sera with Hitachi automatic analyzer Model 7150 (precision, correlation); assay type: biochemical; settings: for Average values (measured values of human sera): n=50 human sera; for Average / Coefficient of variation (C.V.) / Maximum / Minimum: within-run precision
T4 construct: heavy and light chain from one precursor), not purified
Protocol: (§9) The buffer solution prepared in Example 5 was used.
(§10) In deionized water was dissolved 10 mmols of the γ-L-glutamyl-3-hydroxymethyl-4-nitroanilide obtained in Example 4 to make a total volume of 1 liter.
Fifty human sera were used as samples.
The buffer solution prepared in Comparative Example 2 was used.
The substrate solution prepared in Comparative Example 2 was used.
The same samples as in Example 7 were used.
Measurement was carried out under the same conditions as in Example 7, except that among CHEMISTRY PARAMETERS in Table 4, R1 VOLUME was changed to [320][100][NO], […] to [80][20][NO], and K FACTOR to 7123 (ε=9.5).
0.125M Tris-HCL buffer (pH 7.8, at 37° C., containing 96 mM glycylglycine and 13 mM magnesium chloride).
A 0.1N hydrochloric acid solution containing 20 mM of γ-L-glutamyl-4-nitroanilide.
Measurement was carried out under the same conditions as in Example 7, except that among CHEMISTRY PARAMETERS in Table 4, K FACTOR was changed to 6835 (ε=9.90).
In FIG. 1 is shown the correlation of the values measured for the individual human sera in Example 7 with those in Comparative Example 3. The coefficient of correlation, the regression equation, and the like, obtained by statistical processing, etc. are shown below.
In FIG. 2 is shown the correlation of the values measured for the individual human sera in Example 7 with those in Comparative Example 4. The coefficient of correlation, the regression equation, and the like, obtained by statistical processing, etc. are shown below.

[9] = molecular target: T3, γ-GTP (human serum); settings: reported by Leslie M. Shaw (Clinical Chemistry, 23, 79 (1977)); cited from earlier work
[10] = tested on: γ-GTP (porcine kidney); settings: reported by Leslie M. Shaw (Clinical Chemistry, 23, 79 (1977)); cited from earlier work
[11] = molecular target: T1, γ-GTP derived from porcine kidney; test: Calibration curve linearity with γ-GTP derived from porcine kidney in 7% aqueous bovine albumin solution; assay type: biochemical; settings: 7% aqueous bovine albumin solution containing porcine kidney γ-GTP
Protocol: as §9, §10

[12] = tested on: γ-GTP (bovine kidney); test: Km value, γ-GTP from bovine kidney; assay type: biochemical
Excerpt: (§11) In Table 3 are shown the results of measuring, by a conventional method, Km values of γ-L-glutamyl-3-hydroxymethyl-4-nitroanilide, which is a compound of this invention, for each of γ-GTPs derived from human serum, porcine kidney and bovine kidney.

[13] = tested on: γ-GTP (porcine kidney); test: Km value, γ-GTP from porcine kidney; assay type: biochemical
Excerpt: as §11
In Table 3 are also shown, for reference, Km values of γ-L-glutamyl-3-carboxy-4-nitroanilide and γ-L-glutamyl-p-nitroanilide reported by Leslie M. Shaw (Clinical Chemistry, 23, 79 (1977)).

T4 sequence (P19440 whole entry): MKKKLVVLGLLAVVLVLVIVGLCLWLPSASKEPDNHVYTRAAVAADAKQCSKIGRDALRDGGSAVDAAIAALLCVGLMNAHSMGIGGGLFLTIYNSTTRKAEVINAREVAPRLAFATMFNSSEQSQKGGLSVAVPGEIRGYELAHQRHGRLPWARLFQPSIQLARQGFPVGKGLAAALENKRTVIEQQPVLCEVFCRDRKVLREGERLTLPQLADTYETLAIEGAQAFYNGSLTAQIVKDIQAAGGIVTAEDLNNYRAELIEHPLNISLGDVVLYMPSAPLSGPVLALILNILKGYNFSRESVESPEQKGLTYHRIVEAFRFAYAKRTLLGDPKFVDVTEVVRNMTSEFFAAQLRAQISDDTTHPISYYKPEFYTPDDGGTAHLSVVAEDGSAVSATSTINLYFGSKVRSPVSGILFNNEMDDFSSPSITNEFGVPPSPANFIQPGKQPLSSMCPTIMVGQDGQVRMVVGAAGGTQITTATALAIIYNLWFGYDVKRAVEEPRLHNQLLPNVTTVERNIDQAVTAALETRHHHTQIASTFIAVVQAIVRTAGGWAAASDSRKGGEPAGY
T3 sequence (P19440 1-380 limits assumed): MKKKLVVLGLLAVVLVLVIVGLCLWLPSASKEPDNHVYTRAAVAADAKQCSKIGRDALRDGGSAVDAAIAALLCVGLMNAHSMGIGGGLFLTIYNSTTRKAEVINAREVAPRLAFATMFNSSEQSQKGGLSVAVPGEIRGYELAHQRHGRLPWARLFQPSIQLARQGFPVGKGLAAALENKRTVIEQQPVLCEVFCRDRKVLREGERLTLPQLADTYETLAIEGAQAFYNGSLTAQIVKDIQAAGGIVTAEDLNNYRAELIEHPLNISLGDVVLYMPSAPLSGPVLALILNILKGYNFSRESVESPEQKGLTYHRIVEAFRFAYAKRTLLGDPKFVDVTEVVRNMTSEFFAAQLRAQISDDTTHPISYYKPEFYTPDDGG
T3 sequence (P19440 381-569 limits assumed): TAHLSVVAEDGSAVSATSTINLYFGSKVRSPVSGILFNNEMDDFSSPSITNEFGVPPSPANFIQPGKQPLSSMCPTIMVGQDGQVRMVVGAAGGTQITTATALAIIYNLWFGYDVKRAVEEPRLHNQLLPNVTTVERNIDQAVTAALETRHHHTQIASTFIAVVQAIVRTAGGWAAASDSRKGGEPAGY
T1 sequence (P20735 1-379 limits assumed): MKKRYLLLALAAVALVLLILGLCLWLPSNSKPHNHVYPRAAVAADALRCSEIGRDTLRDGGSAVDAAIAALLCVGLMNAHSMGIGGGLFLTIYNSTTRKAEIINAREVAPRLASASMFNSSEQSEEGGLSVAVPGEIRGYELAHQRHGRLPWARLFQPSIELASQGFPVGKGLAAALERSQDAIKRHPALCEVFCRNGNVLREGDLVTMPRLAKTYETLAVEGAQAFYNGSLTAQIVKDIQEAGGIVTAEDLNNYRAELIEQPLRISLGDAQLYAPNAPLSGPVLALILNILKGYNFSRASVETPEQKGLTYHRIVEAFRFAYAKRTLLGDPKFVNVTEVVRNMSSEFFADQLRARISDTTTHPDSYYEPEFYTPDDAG
T1 sequence (P20735 380-568 limits assumed): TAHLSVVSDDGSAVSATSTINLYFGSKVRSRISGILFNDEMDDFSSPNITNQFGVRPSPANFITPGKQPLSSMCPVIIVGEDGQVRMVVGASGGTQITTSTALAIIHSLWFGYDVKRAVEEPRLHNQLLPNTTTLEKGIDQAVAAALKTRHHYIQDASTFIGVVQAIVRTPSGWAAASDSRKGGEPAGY
T2 sequence (G3N2D8 1-379 limits assumed): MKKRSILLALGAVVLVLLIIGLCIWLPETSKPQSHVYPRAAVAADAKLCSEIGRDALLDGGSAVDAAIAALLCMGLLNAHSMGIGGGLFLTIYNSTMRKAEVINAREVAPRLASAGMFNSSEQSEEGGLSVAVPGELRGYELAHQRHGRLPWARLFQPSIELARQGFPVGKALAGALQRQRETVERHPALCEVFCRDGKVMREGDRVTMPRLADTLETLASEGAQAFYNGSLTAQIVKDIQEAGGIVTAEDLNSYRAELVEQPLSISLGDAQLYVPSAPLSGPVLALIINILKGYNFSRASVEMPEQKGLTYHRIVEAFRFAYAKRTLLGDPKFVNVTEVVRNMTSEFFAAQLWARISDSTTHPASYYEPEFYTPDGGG
T2 sequence (G3N2D8 380-568 limits assumed): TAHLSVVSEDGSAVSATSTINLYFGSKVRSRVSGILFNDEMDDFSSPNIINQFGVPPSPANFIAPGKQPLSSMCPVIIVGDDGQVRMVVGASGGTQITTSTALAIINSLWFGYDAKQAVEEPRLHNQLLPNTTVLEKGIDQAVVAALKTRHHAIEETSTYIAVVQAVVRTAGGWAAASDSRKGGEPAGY

| Structure (SMILES) | relative γ-GTP activity value, porcine sample [3] | relative γ-GTP activity value, bovine sample [4] | Solubility ([5]; 5° C.) | relative γ-GTP activity value, human serum [6] | Average values (measured values of human sera) [8] | solubility and stability after dissolution versus γ-glutamyl-p-nitroanilide (in words) [1] | Difference between max. and min. activity values [2] | Km [9] | Km [10] | also measured |
| --- | --- | --- | --- | --- | --- | --- | --- | --- | --- | --- |
| N[C@@H](CCC(=O)Nc1ccc([N+](=O)[O-])c(S(=O)(=O)O)c1)C(=O)O [γ-L-glutamyl-3-sulfo-4-nitroanilide] |  |  |  |  |  | much superior |  |  |  |  |
| N[C@@H](CCC(=O)Nc1ccc([N+](=O)[O-])c(CCO)c1)C(=O)O [γ-L-glutamyl-3-(β-hydroxyethyl)-4-nitroanilide] | 87 | 85 | 10000 µM (≈ 3.11 mg/mL) | 95 |  |  | 10 |  |  |  |
| N[C@@H](CCC(=O)Nc1ccc([N+](=O)[O-])c(C(=O)O)c1)C(=O)O [γ-L-glutamyl-3-carboxy-4-nitroanilide, reference compound] | 127 | 94 | ≥ 100000 µM | 103 | 106.72 | much superior | 33 | 1190 µM | 1630 µM | difference in reactivity with γ-GTPs derived from various sources (in words) ([2]; various sources of γ-GTP): vary more widely in reactivity with γ-GTPs derived from various sources |

The next lines start with results.

| relative γ-GTP activity value, porcine sample [3] | relative γ-GTP activity value, bovine sample [4] | Solubility ([5]; 5° C.) | relative γ-GTP activity value, human serum [6] | Average values (measured values of human sera) [8] | Structure (SMILES) | solubility and stability after dissolution versus γ-glutamyl-p-nitroanilide (in words) [1] | Difference between max. and min. activity values [2] | Km [9] | Km [10] | also measured |
| --- | --- | --- | --- | --- | --- | --- | --- | --- | --- | --- |
| 100 | 100 |  | 100 | 115.02 | N[C@@H](CCC(=O)Nc1ccc([N+](=O)[O-])cc1)C(=O)O [γ-L-glutamyl-p-nitroanilide, reference compound] |  |  | 1330 µM | 1870 µM | solubility (in words) [7]: slightly soluble; stability (in words) ([1]; suitable pH range for dissolution): unstable; Solubility ([5]; 37° C.): 5000 µM (≈ 1.34 mg/mL) |
| 139 | 151 | ≥ 100000 µM | 148 | 115.94 | N[C@@H](CCC(=O)Nc1ccc([N+](=O)[O-])c(CO)c1)C(=O)O [γ-L-glutamyl-3-hydroxymethyl-4-nitroanilide] |  | 12 |  |  | linearity of calibration curve, upper limit [11]: about 6400 IU/l; Coefficient of correlation ([8]; Example 7 vs Comparative Example 3, n=50 human sera): 0.9998; Coefficient of correlation ([8]; Example 7 vs Comparative Example 4, n=50 human sera): 0.9998; within-run precision (in words) ([8]; Table 5): good precision; Average ([8]; sample 1, n=40): 66.4 IU/l; Coefficient of variation (C.V.) ([8]; sample 1, n=40): 0.95; Maximum ([8]; sample 1, n=40): 68 IU/l; Minimum ([8]; sample 1, n=40): 66 IU/l; Average ([8]; sample 2, n=40): 137.0 IU/l; Coefficient of variation (C.V.) ([8]; sample 2, n=40): 0.83; Maximum ([8]; sample 2, n=40): 139 IU/l; Minimum ([8]; sample 2, n=40): 134 IU/l; Km [12]: 670 µM; Km [13]: 670 µM |
